Consider 28 molecules from ChEMBL document CHEMBL3046249, “Synthesis and antifungal activity of cinnamic acid esters” (1996).

What all share (assay type): functional
Test [1] concerns Athelia rolfsii. Nature of the test: Antimicrobial activity against Athelia rolfsii assessed as growth inhibition at 100 ppm by agar dilution method. Conditions: Agroathelia rolfsii; read-out: GI. Background: Agar dilution tests growth on a series of plates holding different concentrations.
For test [2], the system named is Pythium. Nature of the test: Antimicrobial activity against Pythium sp. assessed as growth inhibition at 100 ppm by agar dilution method. Conditions: read-out: GI.
Test [3] relates to Pythium. Nature of the test: Antimicrobial activity against Pythium sp. assessed as growth inhibition at 10 ppm by agar dilution method. The settings on record: read-out: GI.
Test [4] concerns Athelia rolfsii. The test is described as follows: Antimicrobial activity against Athelia rolfsii assessed as growth inhibition at 10 ppm by agar dilution method. Conditions: Agroathelia rolfsii; read-out: GI.

On to `Cc1ccc(C(C)C)c(OC(=O)/C=C/c2ccccc2)c1`, for which the inhibition of growth at 100 ppm in the test on Athelia rolfsii [1] was determined as 45%; in the test on Pythium [2] it was 54%.
For `CCCOC(=O)/C=C/c1ccc(O)c(OC)c1` the same measures were 26% and 9%.
Regarding `COc1cc(/C=C/C(=O)OC(C)C)ccc1O`, the inhibition of growth at 100 ppm was 38% in the test with Athelia rolfsii [1] and 18% in the test with Pythium [2].
For `CCCCOC(=O)/C=C/c1ccc(O)c(OC)c1` the same measures were 0% and 0%.
On to `CCCOC(=O)/C=C/c1ccc(O)cc1`, for which the inhibition of growth at 100 ppm in the test on Athelia rolfsii [1] stood at 70%; with Pythium [2] it was 91%. Besides, the inhibition of growth at 10 ppm in the test on Pythium [3] amounted to 31%; in the test with Athelia rolfsii [4] it was 9%.
As for `CCCCOC(=O)/C=C/c1ccc(O)cc1`, the inhibition of growth at 100 ppm with Athelia rolfsii [1] is 81%; in the test on Pythium [2] it was 71%. In addition, the figures for the inhibition of growth at 10 ppm with Pythium [3] and in the test with Athelia rolfsii [4] were 35% and 29%, respectively.
As to `O=C(/C=C/c1ccc(O)cc1)Oc1ccccc1`, the inhibition of growth at 100 ppm in the test on Athelia rolfsii [1] was found to be 53%; in the test on Pythium [2] it was 80%. Further, in the test with Pythium [3], the inhibition of growth at 10 ppm was 16%.
`CC(C)=CCCC(C)CCOC(=O)/C=C/c1ccc(O)cc1` (stereo not given): the inhibition of growth at 100 ppm in the test with Athelia rolfsii [1] was 55%; with Pythium [2] it was 63%.
Regarding `Cc1ccc(OC(=O)/C=C/c2ccc(O)cc2)c(C(C)C)c1`, the inhibition of growth at 100 ppm in the test with Athelia rolfsii [1] is 38%; in the test on Pythium [2], 36%.
Regarding `Cc1ccc(C(C)C)c(OC(=O)/C=C/c2ccc(O)cc2)c1`, the results for the inhibition of growth at 100 ppm in the test with Athelia rolfsii [1] and in the test with Pythium [2] were 31% and 33%, respectively.
For the molecule `COc1cc(/C=C/C(=O)Oc2ccc(C)cc2C(C)C)ccc1O`, the inhibition of growth at 100 ppm is 37% in the test with Athelia rolfsii [1] and 49% with Pythium [2].
On the same counts, the results for `COc1cc(/C=C/C(=O)Oc2cc(C)ccc2C(C)C)ccc1O` are 58% and 9%.
Turning to `C=CCc1ccc(OC(=O)/C=C/c2ccc(O)c(OC)c2)c(OC)c1`, the figures for the inhibition of growth at 100 ppm in the test with Athelia rolfsii [1] and in the test with Pythium [2] were 38% and 31%, respectively.
Regarding `CC(C)=CCCC(C)CCOC(=O)/C=C/c1ccccc1` (stereo not given), the inhibition of growth at 100 ppm in the test with Athelia rolfsii [1] and with Pythium [2] was 0% in each case.
With `C=CCc1ccc(OC(=O)/C=C/c2ccccc2)c(OC)c1`, the inhibition of growth at 100 ppm with Athelia rolfsii [1] was 22%; in the test on Pythium [2], 28%.
For `COC(=O)/C=C/c1ccc(O)c(OC)c1` the same measures were 37% and 0%.
For the molecule `O=C(O)/C=C/c1ccccc1` [CINNAMIC ACID], the inhibition of growth at 100 ppm with Athelia rolfsii [1] stood at 100%; in the test with Pythium [2], 97%. The inhibition of growth at 10 ppm in the test with Pythium [3] stood at 12%; with Athelia rolfsii [4] it was 24%.
For the molecule `O=C(O)/C=C/c1ccc(O)cc1` [COUMARIC ACID], the inhibition of growth at 100 ppm is 46% in the test on Athelia rolfsii [1] and 10% in the test with Pythium [2].
On the same counts, the results for `COC(=O)/C=C/c1ccccc1` [E-METHYL CINNAMATE] are 53% and 66%.
As for `CCOC(=O)/C=C/c1ccc(O)c(OC)c1` [ETHYL FERULATE], the inhibition of growth at 100 ppm with Athelia rolfsii [1] worked out at 43%; in the test on Pythium [2] it was 50%.
Consider `CCOC(=O)/C=C/c1ccc(O)cc1` [ETHYL P-COUMARATE], for which the inhibition of growth at 100 ppm stood at 45% in the test on Athelia rolfsii [1] and 87% in the test with Pythium [2]. Besides, the inhibition of growth at 10 ppm in the test with Pythium [3] was 29%; with Athelia rolfsii [4], 8%.
For the molecule `COc1cc(/C=C/C(=O)O)ccc1O` [FERULATE], the figures for the inhibition of growth at 100 ppm in the test on Athelia rolfsii [1] and in the test on Pythium [2] were 54% and 48%, respectively.
For `CCCCCCCOC(=O)/C=C/c1ccccc1` [HEPTYL CINNAMATE], the inhibition of growth at 100 ppm in the test with Athelia rolfsii [1] turned out to be 10%; in the test with Pythium [2] it was 42%.
For the molecule `CC(C)OP(=O)(OC(C)C)SCc1ccccc1` [IPROBENFOS], the inhibition of growth at 100 ppm with Athelia rolfsii [1] is 100%; in the test on Pythium [2] it was 89%. In addition, the inhibition of growth at 10 ppm turned out to be 42% with Pythium [3] and 69% in the test on Athelia rolfsii [4].
As for `CC(C)OC(=O)/C=C/c1ccc(O)cc1` [ISOPROPYL 3-(4-HYDROXYPHENYL)ACRYLATE], the inhibition of growth at 100 ppm in the test on Athelia rolfsii [1] was found to be 84%; in the test on Pythium [2], 98%. Moreover, the results for the inhibition of growth at 10 ppm in the test on Pythium [3] and with Athelia rolfsii [4] were 41% and 10%, respectively.
As for `COC(=O)/C=C/c1ccc(O)cc1` [METHYL P-HYDROXYCINNAMATE], the inhibition of growth at 100 ppm with Athelia rolfsii [1] was found to be 41%; in the test with Pythium [2], 54%. Besides, the inhibition of growth at 10 ppm in the test on Pythium [3] was 0%.
With `CCCCCCCCOC(=O)/C=C/c1ccccc1` [OCTYL CINNAMATE], the inhibition of growth at 100 ppm with Athelia rolfsii [1] was 13%; in the test with Pythium [2] it was 56%.
With `O=C(/C=C/c1ccccc1)OCCc1ccccc1` [PHENETHYL CINNAMATE], the figures for the inhibition of growth at 100 ppm with Athelia rolfsii [1] and in the test with Pythium [2] were 22% and 28%, respectively.
